Where a name gives a salt, the structure may show the parent alone. Read-outs that look alike come from different tables or passages of the source. No end group written: not given here.
Legend:
[1] = tested on: rat prostate; test: Prostate volume in rats after intraprostatic (whole gland) injection; assay type: in vivo, Sprague-Dawley rats; conditions: control injection 0.5 mL HCl in water pH 3.0-5.0, 24 hr-10 days
Description: (§1) Two month old Sprague-Dawley rats (n=268) weighing 200 to 300 g, housed in groups of 2-5 per cage at room temperature (24-26° C.), with standard unrestricted diet and water, were anesthetized with ether and underwent open laparoscopic injections, using sterile precautions and sterile techniques, without antibiotics, of 0.3 mL of FT 0.1-2.0 mg/mL in phosphate buffered saline (PBS) pH 7.4, administered by #26 gauge sterile needles attached to sterile syringes. The animals received a “whole gland” injection in an amount roughly 20 times the amount previously administered to humans. […] The rats were daily observed and painlessly sacrificed after post-treatment intervals of 24 hours to 12 months under either anesthesia.
(§2) Sub-groups of rats received repeated injections (2×-8×, on a once weekly basis) (Table 1).
(§3) Apoptosis was evaluated microscopically in H&E stained sections, including rats sacrificed after 24, 48, and 72 hours, 4-8 days, and 1, 3, 6, and 12 months. […] TUNEL staining was assessed in 21 animals (72 hours; 7 days, post-treatment). Prostate volume (calculated by approximation to a sphere using the mean of 8 perpendicular diameters (2 per section at 90 degrees; on four sections) and calculations of 4/3 π(D/2)^3) were assessed in all animals and all controls. […]

[2] = tested on: rat prostate glandular epithelium, nerves, stroma, vessels; test: Prostate histology (H&E, Bielschowsky silver, TUNEL) in treated rats; assay type: in vivo, Sprague-Dawley rats
Description: as §1
Prostate glands were removed, bisected, and immersed in 10% formalin solution, and subsequently embedded in paraffin, sectioned, and stained with (1) hematoxylin-eosin (H&E); (2) Bielschowsky silver method for nerve fibers; and (3) immunohistochemical TUNEL staining. TUNEL (Terminal deoxynucleotidyl transferase (dUTP) nick end labeling) detects DNA fragmentation by labeling the 3′-hydroxyl termini in the double-stand DNA breaks generated during apoptosis. Prostate cell lines (PC3 and LNCAP) were treated with FT 0.001 or 0.25 mg/mL in 6, 24, and 48 well plates and harvested and pelleted at 0, 12, 24, and 48 hours. […] The same treated cell lines under the same conditions were also stained in vitro after treatment using Annexin V immunofluorescence methods and viewed under ultraviolet light, and cell loss in vitro was assessed quantitatively (Multitox-Fluor, Promega). […]
as §3

[3] = in vivo
Source text: as §2

Molecule | Prostate Volume mm^3-Mean (SD) [1] | rats with focal ischemic or hemorrhagic infarctions and necrosis ([2]; HCl pH 3.0-5.0 injected, involving <5% of the cross-sectional area) | toxic effects ([3]; dog) | toxic effects ([3]; rabbit) | toxic effects ([3]; rat) | nerves and blood vessels ([2]; all time intervals) | nerve histology ([2]; all time points including 6 months and 1 year)
Cl [HCl, reference compound] | 859.7 (278.1) mm^3 | 2/12 |  |  |  |  | 
IDQQVLSRIKLEIKRCL [FT, Ile-Asp-Gln-Gln-Val-Leu-Ser-Arg-Ile-Lys-Leu-Glu-Ile-Lys-Arg-Cys-Leu] |  |  | no toxic effects | no toxic effects | no toxic effects | intact | normal appearing nerves

From US20200061150A1, “METHOD OF INDUCING SELECTIVE PROSTATE GLANDULAR PHARMACO-ABLATION WITH SPARING OF NERVES AND PRESERVATION OF SEXUAL FUNCTION” (Nymox Corporation, priority 2018, published 2020)
